How the values were obtained:
Assay in all cases: radiometric filter-binding kinase assay, Kinase HotSpot
Settings in all cases: compound 0.5 µM; ATP 10 µM
ABL1 (human) = ABL1 (human) (UniProt P00519)
MYLK (human) = MYLK (human) (UniProt Q15746)
PTK6 (human) = PTK6 (human) (UniProt Q13882)
CAMK1 (human) = CAMK1 (human) (UniProt Q14012)
IKBKB (human) = IKBKB (human) (UniProt O14920)
CDK2 CCNE1 (human) = CDK2 CCNE1 (human) (UniProt P24941+P24864)
PAK2 (human) = PAK2 (human) (UniProt Q13177)
SRPK1 (human) = SRPK1 (human) (UniProt Q96SB4)
AKT3 (human) = AKT3 (human) (UniProt Q9Y243)
PRKX (human) = PRKX (human) (UniProt P51817)
STK3 (human) = STK3 (human) (UniProt Q13188)
EPHA8 (human) = EPHA8 (human) (UniProt P29322)
MYLK2 (human) = MYLK2 (human) (UniProt Q9H1R3)
CHUK (human) = CHUK (human) (UniProt O15111)
CAMK4 (human) = CAMK4 (human) (UniProt Q16566)
CDK2 CCNA2 (human) = CDK2 CCNA2 (human) (UniProt P24941+P20248)
ADRBK1 (human) = ADRBK1 (human) (UniProt P25098)
CDK7 CCNH MNAT1 (human) = CDK7 CCNH MNAT1 (human) (UniProt P50613+P51948+P51946)
PRKD1 (human) = PRKD1 (human) (UniProt Q15139)
CDK1 CCNA2 (human) = CDK1 CCNA2 (human) (UniProt P06493+P20248)
GSG2 (human) = GSG2 (human) (UniProt Q8TF76)
MAPK10 (human) = MAPK10 (human) (UniProt P53779)
BTK (human) = BTK (human) (UniProt Q06187)
MATK (human) = MATK (human) (UniProt P42679)
NTRK1 (human) = NTRK1 (human) (UniProt P04629)
MAPK3 (human) = MAPK3 (human) (UniProt P27361)
DYRK4 (human) = DYRK4 (human) (UniProt Q9NR20)
PKN1 (human) = PKN1 (human) (UniProt Q16512)
RIPK2 (human) = RIPK2 (human) (UniProt O43353)
TBK1 (human) = TBK1 (human) (UniProt Q9UHD2)
ABL2 (human) = ABL2 (human) (UniProt P42684)
MST1R (human) = MST1R (human) (UniProt Q04912)
MAP3K3 (human) = MAP3K3 (human) (UniProt Q99759)
LTK (human) = LTK (human) (UniProt P29376)
GSK3A (human) = GSK3A (human) (UniProt P49840)
CAMK2A (human) = CAMK2A (human) (UniProt Q9UQM7)
INSRR (human) = INSRR (human) (UniProt P14616)
ULK2 (human) = ULK2 (human) (UniProt Q8IYT8)
MET (human) = MET (human) (UniProt P08581)
STK25 (human) = STK25 (human) (UniProt O00506)
CSNK1G2 (human) = CSNK1G2 (human) (UniProt P78368)

Sequence of PKN1 (human) (Q16512 whole entry, looked up): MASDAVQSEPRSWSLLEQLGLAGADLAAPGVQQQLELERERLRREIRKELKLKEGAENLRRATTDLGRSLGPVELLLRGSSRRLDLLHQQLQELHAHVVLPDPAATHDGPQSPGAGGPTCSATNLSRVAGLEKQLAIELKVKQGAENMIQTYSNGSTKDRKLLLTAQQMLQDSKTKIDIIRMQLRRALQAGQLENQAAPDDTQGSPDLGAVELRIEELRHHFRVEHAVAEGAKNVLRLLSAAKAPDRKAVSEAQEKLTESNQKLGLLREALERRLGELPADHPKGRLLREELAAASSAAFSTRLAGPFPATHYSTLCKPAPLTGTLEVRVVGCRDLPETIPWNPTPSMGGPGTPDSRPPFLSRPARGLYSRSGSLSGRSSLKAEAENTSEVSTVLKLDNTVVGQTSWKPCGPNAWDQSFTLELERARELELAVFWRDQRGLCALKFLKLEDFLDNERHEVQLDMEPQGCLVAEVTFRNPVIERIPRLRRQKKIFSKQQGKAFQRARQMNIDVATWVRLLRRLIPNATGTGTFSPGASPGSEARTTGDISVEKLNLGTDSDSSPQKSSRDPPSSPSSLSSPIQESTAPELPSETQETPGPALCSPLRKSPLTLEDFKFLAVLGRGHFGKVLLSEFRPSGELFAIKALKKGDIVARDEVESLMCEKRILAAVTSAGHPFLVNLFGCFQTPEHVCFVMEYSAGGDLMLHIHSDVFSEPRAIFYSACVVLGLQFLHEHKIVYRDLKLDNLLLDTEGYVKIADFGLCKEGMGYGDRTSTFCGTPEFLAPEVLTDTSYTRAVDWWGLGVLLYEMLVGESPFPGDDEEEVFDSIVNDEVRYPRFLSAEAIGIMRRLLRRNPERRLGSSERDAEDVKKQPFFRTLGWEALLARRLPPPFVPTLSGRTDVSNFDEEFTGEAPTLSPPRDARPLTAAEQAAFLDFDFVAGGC
Sequence of AKT3 (human) (Q9Y243 whole entry, looked up): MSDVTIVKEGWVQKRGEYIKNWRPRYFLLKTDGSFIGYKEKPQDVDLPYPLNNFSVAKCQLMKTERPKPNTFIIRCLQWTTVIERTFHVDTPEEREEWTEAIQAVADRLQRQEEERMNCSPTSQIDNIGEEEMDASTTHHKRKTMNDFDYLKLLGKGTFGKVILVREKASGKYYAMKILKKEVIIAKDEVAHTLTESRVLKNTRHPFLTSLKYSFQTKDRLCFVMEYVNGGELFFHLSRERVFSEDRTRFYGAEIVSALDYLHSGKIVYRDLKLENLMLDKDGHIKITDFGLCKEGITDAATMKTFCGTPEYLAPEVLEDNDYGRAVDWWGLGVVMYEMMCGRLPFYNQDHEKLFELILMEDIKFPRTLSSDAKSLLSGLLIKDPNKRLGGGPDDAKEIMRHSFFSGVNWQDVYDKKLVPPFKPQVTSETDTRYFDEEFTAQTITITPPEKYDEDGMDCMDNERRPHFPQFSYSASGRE
Sequence of CHUK (human) (O15111 whole entry, looked up): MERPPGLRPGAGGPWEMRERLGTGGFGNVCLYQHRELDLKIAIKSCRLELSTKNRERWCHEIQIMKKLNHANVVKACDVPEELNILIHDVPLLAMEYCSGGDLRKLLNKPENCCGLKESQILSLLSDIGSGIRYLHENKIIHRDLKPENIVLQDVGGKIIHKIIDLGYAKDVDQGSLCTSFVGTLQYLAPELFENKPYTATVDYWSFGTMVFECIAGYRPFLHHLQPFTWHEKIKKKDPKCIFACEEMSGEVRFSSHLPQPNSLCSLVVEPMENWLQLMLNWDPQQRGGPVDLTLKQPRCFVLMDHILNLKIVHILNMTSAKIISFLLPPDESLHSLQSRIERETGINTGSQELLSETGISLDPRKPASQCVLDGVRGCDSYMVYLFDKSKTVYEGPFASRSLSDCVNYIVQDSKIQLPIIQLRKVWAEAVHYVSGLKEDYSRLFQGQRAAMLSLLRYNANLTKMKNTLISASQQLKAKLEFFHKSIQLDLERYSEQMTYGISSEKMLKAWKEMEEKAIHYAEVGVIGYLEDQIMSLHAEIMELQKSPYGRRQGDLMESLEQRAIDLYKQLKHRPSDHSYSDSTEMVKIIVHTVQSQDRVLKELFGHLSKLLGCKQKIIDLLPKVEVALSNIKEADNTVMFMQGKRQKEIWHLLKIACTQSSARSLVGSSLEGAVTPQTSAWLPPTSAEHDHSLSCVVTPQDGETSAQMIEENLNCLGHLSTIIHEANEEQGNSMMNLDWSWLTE
Sequence of RIPK2 (human) (O43353 whole entry, looked up): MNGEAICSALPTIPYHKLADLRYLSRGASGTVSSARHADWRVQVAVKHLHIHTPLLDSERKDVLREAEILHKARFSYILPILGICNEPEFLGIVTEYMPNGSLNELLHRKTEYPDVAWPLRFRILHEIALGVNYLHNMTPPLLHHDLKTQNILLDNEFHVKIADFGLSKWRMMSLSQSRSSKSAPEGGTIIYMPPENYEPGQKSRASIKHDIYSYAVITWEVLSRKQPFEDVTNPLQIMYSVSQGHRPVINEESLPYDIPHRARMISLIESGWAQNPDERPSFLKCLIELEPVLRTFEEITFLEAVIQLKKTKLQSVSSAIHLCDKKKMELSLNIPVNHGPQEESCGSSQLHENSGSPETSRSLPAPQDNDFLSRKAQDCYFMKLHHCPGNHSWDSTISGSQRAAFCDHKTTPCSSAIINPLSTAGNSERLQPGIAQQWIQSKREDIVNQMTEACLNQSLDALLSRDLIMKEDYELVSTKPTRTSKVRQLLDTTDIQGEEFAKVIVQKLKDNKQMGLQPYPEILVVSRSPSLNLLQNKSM
Sequence of SRPK1 (human) (Q96SB4 whole entry, looked up): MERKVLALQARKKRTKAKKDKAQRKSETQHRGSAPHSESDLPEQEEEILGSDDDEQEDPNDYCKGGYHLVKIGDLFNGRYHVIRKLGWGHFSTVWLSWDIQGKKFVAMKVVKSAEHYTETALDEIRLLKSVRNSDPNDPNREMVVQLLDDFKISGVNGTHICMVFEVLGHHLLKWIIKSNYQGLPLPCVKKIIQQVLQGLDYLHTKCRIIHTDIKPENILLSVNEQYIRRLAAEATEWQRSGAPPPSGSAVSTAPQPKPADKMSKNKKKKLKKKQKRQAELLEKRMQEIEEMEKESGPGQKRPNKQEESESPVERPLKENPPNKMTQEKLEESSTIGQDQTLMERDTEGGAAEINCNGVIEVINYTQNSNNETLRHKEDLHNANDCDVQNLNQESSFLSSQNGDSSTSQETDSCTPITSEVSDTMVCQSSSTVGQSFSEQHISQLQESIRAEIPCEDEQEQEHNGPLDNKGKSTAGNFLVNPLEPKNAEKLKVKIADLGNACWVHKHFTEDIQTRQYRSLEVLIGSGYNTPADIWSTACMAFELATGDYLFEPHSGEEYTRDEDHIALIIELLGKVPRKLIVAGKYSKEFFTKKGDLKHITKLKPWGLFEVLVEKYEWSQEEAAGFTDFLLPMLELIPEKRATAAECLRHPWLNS
Sequence of PRKD1 (human) (Q15139 whole entry, looked up): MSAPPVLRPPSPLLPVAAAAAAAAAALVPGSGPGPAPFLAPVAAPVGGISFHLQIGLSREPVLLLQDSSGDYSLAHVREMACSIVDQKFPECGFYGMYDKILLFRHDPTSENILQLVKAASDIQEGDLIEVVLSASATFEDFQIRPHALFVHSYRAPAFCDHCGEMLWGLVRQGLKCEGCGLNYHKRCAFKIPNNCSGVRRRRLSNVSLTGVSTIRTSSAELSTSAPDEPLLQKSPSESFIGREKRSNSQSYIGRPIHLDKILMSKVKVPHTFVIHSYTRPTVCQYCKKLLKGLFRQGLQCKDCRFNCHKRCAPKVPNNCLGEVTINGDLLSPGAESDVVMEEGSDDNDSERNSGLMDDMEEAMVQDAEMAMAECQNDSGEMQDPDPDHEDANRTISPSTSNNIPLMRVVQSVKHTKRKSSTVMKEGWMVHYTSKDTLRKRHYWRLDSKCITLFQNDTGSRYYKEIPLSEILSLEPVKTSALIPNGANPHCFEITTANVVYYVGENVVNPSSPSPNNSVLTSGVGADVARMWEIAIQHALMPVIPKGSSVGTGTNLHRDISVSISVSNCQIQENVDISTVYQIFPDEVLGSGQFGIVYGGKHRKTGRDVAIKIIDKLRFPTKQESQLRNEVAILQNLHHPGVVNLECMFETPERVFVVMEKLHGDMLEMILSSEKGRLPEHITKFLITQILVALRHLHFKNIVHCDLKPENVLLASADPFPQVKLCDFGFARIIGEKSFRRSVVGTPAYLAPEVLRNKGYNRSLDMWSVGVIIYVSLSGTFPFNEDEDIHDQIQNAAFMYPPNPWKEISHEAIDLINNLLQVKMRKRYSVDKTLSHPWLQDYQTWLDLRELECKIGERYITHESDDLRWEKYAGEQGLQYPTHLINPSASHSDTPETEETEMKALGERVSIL
Sequence of PRKX (human) (P51817 whole entry, looked up): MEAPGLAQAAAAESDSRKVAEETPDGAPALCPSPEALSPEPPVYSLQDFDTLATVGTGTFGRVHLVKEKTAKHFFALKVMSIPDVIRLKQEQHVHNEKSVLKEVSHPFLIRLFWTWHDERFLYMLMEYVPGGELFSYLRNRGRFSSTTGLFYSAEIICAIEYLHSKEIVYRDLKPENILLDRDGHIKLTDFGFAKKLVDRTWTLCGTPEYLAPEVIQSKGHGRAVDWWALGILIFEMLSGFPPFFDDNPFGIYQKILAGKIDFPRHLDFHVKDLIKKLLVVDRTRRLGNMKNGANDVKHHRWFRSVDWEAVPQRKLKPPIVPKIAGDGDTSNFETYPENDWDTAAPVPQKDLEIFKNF
Sequence of MAPK3 (human) (P27361 whole entry, looked up): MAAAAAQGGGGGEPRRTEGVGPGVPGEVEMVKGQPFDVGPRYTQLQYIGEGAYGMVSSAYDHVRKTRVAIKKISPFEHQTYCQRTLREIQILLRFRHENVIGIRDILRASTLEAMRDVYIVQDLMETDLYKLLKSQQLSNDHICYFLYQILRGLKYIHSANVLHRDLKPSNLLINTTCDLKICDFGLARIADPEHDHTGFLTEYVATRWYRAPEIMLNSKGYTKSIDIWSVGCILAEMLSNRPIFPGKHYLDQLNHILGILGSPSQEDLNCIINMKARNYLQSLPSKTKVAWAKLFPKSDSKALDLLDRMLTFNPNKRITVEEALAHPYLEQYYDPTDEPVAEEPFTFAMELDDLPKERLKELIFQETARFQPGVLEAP

Structure (SMILES): N#Cc1c(NC(=O)c2cccc3ccccc23)sc2c1CCCC2
- residual activity (ABL1 (human)): 103%
- residual activity (MYLK (human)): 98.7%
- residual activity (PTK6 (human)): 89.8%
- residual activity (CAMK1 (human)): 108%
- residual activity (IKBKB (human)): 97%
- residual activity (CDK2 CCNE1 (human)): 89.1%
- residual activity (PAK2 (human)): 103%
- residual activity (SRPK1 (human)): 102%
- residual activity (AKT3 (human)): 99.6%
- residual activity (PRKX (human)): 103%
- residual activity (STK3 (human)): 111%
- residual activity (EPHA8 (human)): 104%
- residual activity (MYLK2 (human)): 101%
- residual activity (CHUK (human)): 99.6%
- residual activity (CAMK4 (human)): 108%
- residual activity (CDK2 CCNA2 (human)): 100%
- residual activity (ADRBK1 (human)): 105%
- residual activity (CDK7 CCNH MNAT1 (human)): 101%
- residual activity (PRKD1 (human)): 101%
- residual activity (CDK1 CCNA2 (human)): 92.1%
- residual activity (GSG2 (human)): 99%
- residual activity (MAPK10 (human)): 112%
- residual activity (BTK (human)): 95%
- residual activity (MATK (human)): 92.7%
- residual activity (NTRK1 (human)): 105%
- residual activity (MAPK3 (human)): 97.1%
- residual activity (DYRK4 (human)): 98.1%
- residual activity (PKN1 (human)): 108%
- residual activity (RIPK2 (human)): 81.3%
- residual activity (TBK1 (human)): 94%
- residual activity (ABL2 (human)): 98.9%
- residual activity (MST1R (human)): 92.5%
- residual activity (MAP3K3 (human)): 99.8%
- residual activity (LTK (human)): 102%
- residual activity (GSK3A (human)): 97.2%
- residual activity (CAMK2A (human)): 104%
- residual activity (INSRR (human)): 94.3%
- residual activity (ULK2 (human)): 112%
- residual activity (MET (human)): 109%
- residual activity (STK25 (human)): 95.7%
- residual activity (CSNK1G2 (human)): 103%

Structure (SMILES): COc1cc2c(N3CCN(C(=O)Nc4ccc(OC(C)C)cc4)CC3)ncnc2cc1OCCCN1CCCCC1
- residual activity (ABL1 (human)): 104%
- residual activity (MYLK (human)): 96.6%
- residual activity (PTK6 (human)): 92.9%
- residual activity (CAMK1 (human)): 101%
- residual activity (IKBKB (human)): 97.3%
- residual activity (CDK2 CCNE1 (human)): 96.7%
- residual activity (PAK2 (human)): 112%
- residual activity (SRPK1 (human)): 98.2%
- residual activity (AKT3 (human)): 106%
- residual activity (PRKX (human)): 108%
- residual activity (STK3 (human)): 94.7%
- residual activity (EPHA8 (human)): 96.6%
- residual activity (MYLK2 (human)): 101%
- residual activity (CHUK (human)): 98.3%
- residual activity (CAMK4 (human)): 99.3%
- residual activity (CDK2 CCNA2 (human)): 93.3%
- residual activity (ADRBK1 (human)): 98%
- residual activity (CDK7 CCNH MNAT1 (human)): 109%
- residual activity (PRKD1 (human)): 96.1%
- residual activity (CDK1 CCNA2 (human)): 96%
- residual activity (GSG2 (human)): 99.5%
- residual activity (MAPK10 (human)): 94.6%
- residual activity (BTK (human)): 102%
- residual activity (MATK (human)): 79.4%
- residual activity (NTRK1 (human)): 48.1%
- residual activity (MAPK3 (human)): 106%
- residual activity (DYRK4 (human)): 101%
- residual activity (PKN1 (human)): 108%
- residual activity (RIPK2 (human)): 110%
- residual activity (TBK1 (human)): 97.2%
- residual activity (MST1R (human)): 99.2%
- residual activity (MAP3K3 (human)): 106%
- residual activity (LTK (human)): 101%
- residual activity (GSK3A (human)): 105%
- residual activity (CAMK2A (human)): 101%
- residual activity (INSRR (human)): 98.9%
- residual activity (ULK2 (human)): 100%
- residual activity (MET (human)): 92.5%
- residual activity (STK25 (human)): 93.4%
- residual activity (CSNK1G2 (human)): 95.5%

Source: the kinase profiling compilation of Christmann-Franck et al. (2016)
